Laboratory results: patent US20110159304A1, “ANTI-SULPHATE REDUCING BACTERIA COMPOSITION COMPRISING 1,2-BENZISOTHIAZOL-3(2H)-ONE, IRGASAN, BENZYL-2-BROMOACETATE, 2,2-DIBROMO-2-CYANOACETAMIDE, AND 2-BROMO-2-NITROPROPAN-1,3-DIOL” (KOREA GAS CORPORATION, priority 2009, published 2011)
Like-named read-outs stand apart in the source and are kept apart here.

Columns and labels:
Format in all cases: cell-based
[1] = system: Desulfovibrio desulfuricans KCTC 5786; experiment: Antibacterial activity evaluation, paper disk clear zone and MIC; details: for MIC minimum inhibitory concentration: paper disk test, concentrations 1.0-0.001%, 37° C.; for zone of inhibition at 0.01 % / zone of inhibition at 0.1 % / zone of inhibition at 1 % / zone of inhibition at 0.001 %: Desulfovibrio desulfuricans; for antibacterial activity relative to other commercially used antibacterial agents: compared by MIC with 1-hydroxypyridine-2-tionzinc, 2-methyl-isothiazolin-3-one and the like; for zone of inhibition at 0.001 %: antibacterial agent concentration 0.001%
Protocol: Desulfovibrio desulfuricans KCTC 5786 was used as a test sulphate reducing bacteria strain.
The all materials used in the test, disk paper, medium and so on, were sterilized for 15 min at 121° C. Bacteria's culture and antibacterial activity test were performed in an anaerobic chamber (Anaerobic System, Form a Sci; condition maintaining not more than 5 ppm of oxygen concentration).
After culturing the test strain for not less than 3 days, the volume of the culture was adjusted to 10^5-7/mL to prepare for plating it on Desulfovibrio medium, and the test compounds were resolved in a suitable solvent for use (ethanol for lipid soluble compounds, and distilled water for water soluble compounds).
(§1) The experiment proceeded with varying the concentration of the compounds used in the experiment to 1.0%, 0.1%, 0.01%, and 0.001%. The 8 mm of a paper disk was placed on the plate prepared by plating the culture, and were inoculated with 50 μl of various concentrations of the compound. After culturing the strain for 24, and 48 hrs at 37° C., the clear zone (mm) representing antibacterial activity was measured and Minimum Inhibitory Concentration (MIC) was determined.

[2] = system: Desulfovibrio desulfuricans KCTC 5786; experiment: Antibacterial activity test after thermal shock (paper disk clear zone); details: for clear zone after thermal shock / clear zone before thermal shock: 0.1% condition; for clear zone after thermal shock: after thermal shock (180° C., 1 hr); for antibacterial activity after thermal shock: after 180° C., 1 hour, 0.1%
Protocol: as §1
Applying the heat shrinkable sheet using flames of torch, the temperature increased to about 150° C. and the exposure time was around 15 minutes. […] After 1,2-benzisothiazol-3(2H)-one, irgasan, benzyl-2-bromoacetate, 2,2-dibromo-2-cyanoacetamide, and 2-bromo-2-nitropropan-1,3-diol were exposed to higher temperature (180° C.) for a longer time (1 hour), the antibacterial activity was measured at a concentration of 0.1% using the same method as Experiment Example 1 (see, Table 3, FIGS. 3a to 3e).

[3] = system: Desulfovibrio desulfuricans KCTC 5786; experiment: Antibacterial activity test of antibacterial agent-added coating material (adhesive, primer)
Protocol: as §1
Test equipment and materials, and test condition are as follows: • Coating material type: adhesive (Canusa), primer (Polyken) • Mixed antibacterial agent's concentration: control, 0.5, 1.0, 2.0, 5.0 wt %
As an adhesive specimen, the components were mixed by manual stirring in an oven at 150° C., and then an 1 mm-thick adhesive sheet was fabricated. As a primer specimen, a 0.2 mm-thick sheet having a primer dry film was fabricated. The specimen was diced into a size of 15 mm×15 mm, and after UV sterilization, the antibacterial activity of the specimen was assessed using the same environment and method as in the test method of Experiment Example 1 described above.

[4] = adhesive (Canusa) with 0.5 wt % antibacterial agent
[5] = adhesive (Canusa) with 1.0 wt % antibacterial agent
[6] = adhesive (Canusa) with 2.0 wt % antibacterial agent
[7] = adhesive (Canusa) with 5.0 wt % antibacterial agent
[8] = primer (Polyken) with 0.5 wt % antibacterial agent
[9] = primer (Polyken) with 1.0 wt % antibacterial agent
[10] = primer (Polyken) with 2.0 wt % antibacterial agent
[11] = primer (Polyken) with 5.0 wt % antibacterial agent
[12] = KCTC5786, antibacterial agent concentration 0.01%, 8 mm paper disk, 50 μl, — = negative, read-out: CZ (mm) clear zone
[13] = KCTC5786, antibacterial agent concentration 0.1%, 8 mm paper disk, 50 μl, — = negative, read-out: CZ (mm) clear zone
[14] = KCTC5786, antibacterial agent concentration 1%, 8 mm paper disk, 50 μl, — = negative, read-out: CZ (mm) clear zone
[15] = KCTC5786, 8 mm paper disk, 50 μl, — = negative, read-out: CZ (mm) clear zone
[16] = antibacterial agent concentration 0.1%, 8 mm paper disk, 50 μl, — = negative
[17] = antibacterial agent concentration 1%, 8 mm paper disk, 50 μl, — = negative
[18] = KCTC5786, read-out: CZ (mm) clear zone

Molecule | MIC minimum inhibitory concentration [1] | clear zone after thermal shock [2] | clear zone before thermal shock [2] | antibacterial activity after thermal shock [2] | Clear zone (mm), primer [3, 10] | Clear zone (mm), primer [3, 11] | zone of inhibition at 0.1 % [1, 13] | zone of inhibition at 1 % [1, 14] | antibacterial activity relative to other commercially used antibacterial agents [1] | also measured
O=C(Nc1ccc(Cl)cc1)Nc1ccc(Cl)c(Cl)c1 [3,4,4-trichloro-Carbanilide, reference compound] | ≥ 1% | – | – | – | – | – | – | – | – | –
c1ccc2[nH]c(-c3cscn3)nc2c1 [Thiabendazole minimum 99%, Thiabendazole, reference compound] | ≥ 1% | – | – | – | – | – | – | – | – | –
O=[N+]([O-])C(Br)(CO)CO [2-bromo-2-nitropropan-1,3-diol] | – | 25 mm | 20 mm | maintained the excellent antibacterial activity | 2 mm | 16.5 mm | 8 mm | 18.5 mm | 10 times | Clear zone (mm), adhesive [3, 4]: 5.5 mm; Clear zone (mm), adhesive [3, 5]: 10.5 mm; Clear zone (mm), adhesive [3, 6]: 13 mm; Clear zone (mm), adhesive [3, 7]: 14.5 mm; Clear zone (mm), primer [3, 8]: 9 mm; Clear zone (mm), primer [3, 9]: 9 mm; zone of inhibition at 0.01 % [1, 12]: 1.5 mm
N#CC(Br)(Br)C(N)=O [2,2-dibromo-2-cyanoacetamide] | – | 18.5 mm | 39.5 mm | maintained the excellent antibacterial activity | 1 mm | 6.5 mm | ≥ 39 mm | ≥ 39 mm | 10 times | Clear zone (mm), adhesive [3, 4]: 2 mm; Clear zone (mm), adhesive [3, 5]: 2.5 mm; Clear zone (mm), adhesive [3, 6]: ≧26 mm; Clear zone (mm), adhesive [3, 7]: ≧30.5 mm; Clear zone (mm), primer [3, 8]: 1.5 mm; zone of inhibition at 0.001 % [1, 15]: ≥ 39 mm; zone of inhibition at 0.01 % [1, 12]: ≥ 39 mm
CCCCNC(=O)OCC#CI [3-iodo-2-propynyl n-butylcarbamate, 97%, 3-iodo-2-propynyl n-butylcarbamate, reference compound] | 0.1% | – | – | – | – | – | 3 mm | 5.5 mm | – | –
N#Cc1c(Cl)c(Cl)c(Cl)c(C#N)c1Cl [Chlorothalonil, reference compound] | 0.1% | – | – | – | – | – | 2 mm | 4 mm | – | –
O=CCCCC=O [Glutar-di-aldehyde, 50 wt %, Glutar-di-aldehyde, reference compound] | 0.1% | – | – | – | – | – | – | – | – | CZ (mm) clear zone [1, 16]: 6 mm; CZ (mm) clear zone [1, 17]: 12 mm
[O-]n1ccccc1=S.[O-]n1ccccc1=S.[Zn+2] [1-hydroxypyridine-2-thionezinc, reference compound] | 0.1% | – | – | – | – | – | – | – | – | CZ (mm) clear zone [1, 16]: 1 mm; CZ (mm) clear zone [1, 17]: 3.5 mm
O=c1[nH]sc2ccccc12 [1,2-benzisothiazol-3(2H)-one] | – | 14.5 mm | 16 mm | maintained the excellent antibacterial activity | 8.5 mm | 17.5 mm | 6.5 mm | 13.5 mm | 10 times | Clear zone (mm), adhesive [3, 4]: 15 mm; Clear zone (mm), adhesive [3, 5]: 18 mm; Clear zone (mm), adhesive [3, 6]: 19 mm; Clear zone (mm), adhesive [3, 7]: 25 mm; Clear zone (mm), primer [3, 9]: 7.5 mm; zone of inhibition at 0.001 % [1, 15]: 1 mm; zone of inhibition at 0.01 % [1, 12]: 2.5 mm
Cn1sccc1=O [2-methyl-4-isothiazoline-3-one, reference compound] | 0.1% | – | – | – | – | – | – | – | – | zone of inhibition at 0.1 % [1, 18]: 5 mm; zone of inhibition at 1 % [1, 18]: 12 mm
O=C(CBr)OCc1ccccc1 [Benzyl-2-bromoacetate, benzyl-2-bromoacetate] | – | 36 mm | 39 mm | maintained the excellent antibacterial activity | ≧34 mm | ≧39 mm | ≥ 39 mm | ≥ 39 mm | 10 times | Clear zone (mm), adhesive [3, 4]: 24 mm; Clear zone (mm), adhesive [3, 5]: 30 mm; Clear zone (mm), adhesive [3, 6]: 34 mm; Clear zone (mm), adhesive [3, 7]: ≧39 mm; Clear zone (mm), primer [3, 8]: ≧26 mm; Clear zone (mm), primer [3, 9]: ≧32 mm; zone of inhibition at 0.001 % [1, 15]: 35 mm; zone of inhibition at 0.01 % [1, 12]: ≥ 39 mm
Molybdenum (VI) oxide [Molybdenum (VI) oxide 99.99%, reference compound] | 1.0% | – | – | – | – | – | – | – | – | CZ (mm) clear zone [1, 17]: 6 mm
Cc1cc(O)cc(C)c1Cl [4-chloro-3,5-dimethylphenol, reference compound] | 0.1% | – | – | – | – | – | 1 mm | 16 mm | – | –
Oc1cc(Cl)ccc1Oc1ccc(Cl)cc1Cl [Irgasan, irgasan] | – | 13 mm | 13 mm | maintained the excellent antibacterial activity | 1.5 mm | 6 mm | – | – | 10 times | Clear zone (mm), primer [3, 8]: 3.5 mm; Clear zone (mm), primer [3, 9]: 1.5 mm; zone of inhibition at 0.01 % [1, 18]: 5 mm; zone of inhibition at 0.1 % [1, 18]: 11 mm; zone of inhibition at 1 % [1, 18]: 14 mm
